22 compounds from patent US8916702B2 (priority 2012, dated 2014) can be followed below.

One assay relates to HCV pseudoparticles (genotype 1a HCV E1 and E2 envelope, H77C isolate). Briefly: microbe, parasite or virus in culture. The class given is cell-based. To be noted: Hepatitis C virus, Huh-7, 48 h, HCV pseudoparticle infection of Huh7 cells, luciferase 2 days after infection; average of duplicates.
Usually EC50 stands for the midpoint of the concentration-response curve. In the case of `CNC(=O)C(=O)NCC(NC(=O)c1ccc(Nc2nc(NC3(c4ccc(Cl)cc4)CC3)nc(OCC(F)(F)F)n2)cc1)C(=O)O` (stereo in doubt) [Compound 1006, (S)-2-(4-(4-(1-(4-chlorophenyl)cyclopropylamino)-6-(2,2,2-trifluoroethoxy)-1,3,5-triazin-2-ylamino)benzamido)-3-(2-(methylamino)-2-oxoacetamido)propanoic acid], the EC50 stood at 0.69 nM.

`COC(=O)[C@H](CNC(=O)C(N)=O)NC(=O)c1ccc(Nc2nc(NC3(c4ccc(Cl)cc4)CC3)nc(OCC(F)(F)F)n2)cc1` [Compound 1002, (S)-methyl 3-(2-amino-2-oxoacetamido)-2-(4-(4-(1-(4-chlorophenyl)cyclopropylamino)-6-(2,2,2-trifluoroethoxy)-1,3,5-triazin-2-ylamino)benzamido)propanoate] registered an EC50 of 2.11 nM.

Consider `COC(=O)[C@H](CNC(=O)C(=O)N(C)C)NC(=O)c1ccc(Nc2nc(NC3(c4ccc(Cl)cc4)CC3)nc(OCC(F)(F)F)n2)cc1` [Compound 1004, (S)-methyl 2-(4-(4-(1-(4-chlorophenyl)cyclopropylamino)-6-(2,2,2-trifluoroethoxy)-1,3,5-triazin-2-ylamino)benzamido)-3-(2-(dimethylamino)-2-oxoacetamido)propanoate], for which a half-maximal effect (EC50) was put at 4.74 nM.

In turn, `CN(C)C(=O)C(=O)NC[C@H](NC(=O)c1ccc(Nc2nc(NC3(c4ccc(Cl)cc4)CC3)nc(OCC(F)(F)F)n2)cc1)C(=O)OCCN1CCOCC1` [Compound 1022, (S)-2-morpholinoethyl 2-(4-(4-(1-(4-chlorophenyl)cyclopropylamino)-6-(2,2,2-trifluoroethoxy)-1,3,5-triazin-2-ylamino)benzamido)-3-(2-(dimethylamino)-2-oxoacetamido)propanoate] came in with an EC50 of 7.11 nM.

Still in this assay, the particulars now being: Hepatitis C virus, Huh-7, 48 h, read-out: Activity (EC50 class), HCV pseudoparticle infection of Huh7 cells, luciferase 2 days after infection; EC50 expressed as class A/B.
Turning to `CNC(=O)C(=O)NCC(NC(=O)c1ccc(Nc2nc(NC3(c4ccc(Cl)cc4)CC3)nc(OCC(F)(F)F)n2)cc1)C(=O)O` (stereo in doubt) [Compound 1006, (S)-2-(4-(4-(1-(4-chlorophenyl)cyclopropylamino)-6-(2,2,2-trifluoroethoxy)-1,3,5-triazin-2-ylamino)benzamido)-3-(2-(methylamino)-2-oxoacetamido)propanoic acid], the 50% effective concentration (EC50) lay within 0.01 to 10 nM.

As to `NC(=O)C(=O)NCCC(NC(=O)c1ccc(Nc2nc(NC3(c4ccc(Cl)cc4)CC3)nc(OCC(F)(F)F)n2)cc1)C(=O)O` (stereo in doubt) [Compound 1013, (S)-4-(2-amino-2-oxoacetamido)-2-(4-(4-(1-(4-chlorophenyl)cyclopropylamino)-6-(2,2,2-trifluoroethoxy)-1,3,5-triazin-2-ylamino)benzamido)butanoic acid], the half-maximal effective concentration (EC50) fell in the range of 0.01 to 10 nM.

For the compound `CCOC(=O)C(=O)NC[C@H](NC(=O)c1ccc(Nc2nc(NC3(c4ccc(Cl)cc4)CC3)nc(OCC(F)(F)F)n2)cc1)C(=O)OC` [Compound 1001, (S)-methyl 2-(4-(4-(1-(4-chlorophenyl)cyclopropylamino)-6-(2,2,2-trifluoroethoxy)-1,3,5-triazin-2-ylamino)benzamido)-3-(2-ethoxy-2-oxoacetamido)propanoate], the EC50 lay in the range of 10 to 1000 nM.

Consider `COC(=O)[C@H](CNC(=O)C(N)=O)NC(=O)c1ccc(Nc2nc(NC3(c4ccc(Cl)cc4)CC3)nc(OCC(F)(F)F)n2)cc1` [Compound 1002, (S)-methyl 3-(2-amino-2-oxoacetamido)-2-(4-(4-(1-(4-chlorophenyl)cyclopropylamino)-6-(2,2,2-trifluoroethoxy)-1,3,5-triazin-2-ylamino)benzamido)propanoate], for which the EC50 was 0.01 to 10 nM.

Take `CNC(=O)C(=O)NC[C@H](NC(=O)c1ccc(Nc2nc(NC3(c4ccc(Cl)cc4)CC3)nc(OCC(F)(F)F)n2)cc1)C(=O)OC` [Compound 1003, (S)-methyl 2-(4-(4-(1-(4-chlorophenyl)cyclopropylamino)-6-(2,2,2-trifluoroethoxy)-1,3,5-triazin-2-ylamino)benzamido)-3-(2-(methylamino)-2-oxoacetamido)propanoate]: the concentration for a half-maximal effect (EC50) lay within 0.01 to 10 nM.

Turning to `COC(=O)[C@H](CNC(=O)C(=O)N(C)C)NC(=O)c1ccc(Nc2nc(NC3(c4ccc(Cl)cc4)CC3)nc(OCC(F)(F)F)n2)cc1` [Compound 1004, (S)-methyl 2-(4-(4-(1-(4-chlorophenyl)cyclopropylamino)-6-(2,2,2-trifluoroethoxy)-1,3,5-triazin-2-ylamino)benzamido)-3-(2-(dimethylamino)-2-oxoacetamido)propanoate], the concentration giving a half-maximal response (EC50) was 0.01 to 10 nM.

Consider `NC(=O)C(=O)NC[C@H](NC(=O)c1ccc(Nc2nc(NC3(c4ccc(Cl)cc4)CC3)nc(OCC(F)(F)F)n2)cc1)C(=O)O` [Compound 1005, (S)-3-(2-amino-2-oxoacetamido)-2-(4-(4-(1-(4-chlorophenyl)cyclopropylamino)-6-(2,2,2-trifluoroethoxy)-1,3,5-triazin-2-ylamino)benzamido)propanoic acid], for which the EC50 fell in the range of 0.01 to 10 nM.

With `CN(C)C(=O)C(=O)NC[C@H](NC(=O)c1ccc(Nc2nc(NC3(c4ccc(Cl)cc4)CC3)nc(OCC(F)(F)F)n2)cc1)C(=O)O` [Compound 1007, (S)-2-(4-(4-(1-(4-chlorophenyl)cyclopropylamino)-6-(2,2,2-trifluoroethoxy)-1,3,5-triazin-2-ylamino)benzamido)-3-(2-(dimethylamino)-2-oxoacetamido)propanoic acid], the EC50 lay in the range of 0.01 to 10 nM.

Turning to `CN(C)C(=O)C(=O)NCC(C)(C)CNC(=O)c1ccc(Nc2nc(NC3(c4ccc(Cl)cc4)CC3)nc(OCC(F)(F)F)n2)cc1` [Compound 1008, N1-(3-(4-(4-(1-(4-chlorophenyl)cyclopropylamino)-6-(2,2,2-trifluoroethoxy)-1,3,5-triazin-2-ylamino)benzamido)-2,2-dimethylpropyl)-N2,N2-dimethyloxalamide], the EC50 was 0.01 to 10 nM.

On to `COC(=O)[C@H](CCNC(=O)C(N)=O)NC(=O)c1ccc(Nc2nc(NC3(c4ccc(Cl)cc4)CC3)nc(OCC(F)(F)F)n2)cc1` [Compound 1009, (S)-methyl 4-(2-amino-2-oxoacetamido)-2-(4-(4-(1-(4-chlorophenyl)cyclopropylamino)-6-(2,2,2-trifluoroethoxy)-1,3,5-triazin-2-ylamino)benzamido)butanoate], for which the half-maximal effective concentration (EC50) lay in the range of 0.01 to 10 nM.

`CNC(=O)C(=O)NCC[C@H](NC(=O)c1ccc(Nc2nc(NC3(c4ccc(Cl)cc4)CC3)nc(OCC(F)(F)F)n2)cc1)C(=O)OC` [Compound 1010, (S)-methyl 2-(4-(4-(1-(4-chlorophenyl)cyclopropylamino)-6-(2,2,2-trifluoroethoxy)-1,3,5-triazin-2-ylamino)benzamido)-4-(2-(methylamino)-2-oxoacetamido)butanoate]: the half-maximal effective concentration (EC50) was in the range of 0.01 to 10 nM.

Regarding `COC(=O)[C@H](CCNC(=O)C(=O)N(C)C)NC(=O)c1ccc(Nc2nc(NC3(c4ccc(Cl)cc4)CC3)nc(OCC(F)(F)F)n2)cc1` [Compound 1011, (S)-methyl 2-(4-(4-(1-(4-chlorophenyl)cyclopropylamino)-6-(2,2,2-trifluoroethoxy)-1,3,5-triazin-2-ylamino)benzamido)-4-(2-(dimethylamino)-2-oxoacetamido)butanoate], the EC50 was in the range of 0.01 to 10 nM.

As to `COC(=O)[C@H](CCCNC(=O)C(N)=O)NC(=O)c1ccc(Nc2nc(NC3(c4ccc(Cl)cc4)CC3)nc(OCC(F)(F)F)n2)cc1` [Compound 1012, (S)-methyl 5-(2-amino-2-oxoacetamido)-2-(4-(4-(1-(4-chlorophenyl)cyclopropylamino)-6-(2,2,2-trifluoroethoxy)-1,3,5-triazin-2-ylamino)benzamido)pentanoate], the EC50 was in the range of 0.01 to 10 nM.

`CNC(=O)C(=O)NCC[C@H](NC(=O)c1ccc(Nc2nc(NC3(c4ccc(Cl)cc4)CC3)nc(OCC(F)(F)F)n2)cc1)C(=O)O` [Compound 1014, (S)-2-(4-(4-(1-(4-chlorophenyl)cyclopropylamino)-6-(2,2,2-trifluoroethoxy)-1,3,5-triazin-2-ylamino)benzamido)-4-(2-(methylamino)-2-oxoacetamido)butanoic acid]: the EC50 fell in the range of 0.01 to 10 nM.

On to `CN(C)C(=O)C(=O)NCC[C@H](NC(=O)c1ccc(Nc2nc(NC3(c4ccc(Cl)cc4)CC3)nc(OCC(F)(F)F)n2)cc1)C(=O)O` [Compound 1015, (S)-2-(4-(4-(1-(4-chlorophenyl)cyclopropylamino)-6-(2,2,2-trifluoroethoxy)-1,3,5-triazin-2-ylamino)benzamido)-4-(2-(dimethylamino)-2-oxoacetamido)butanoic acid], for which the EC50 is 0.01 to 10 nM.

`NC(=O)C(=O)NCCC[C@H](NC(=O)c1ccc(Nc2nc(NC3(c4ccc(Cl)cc4)CC3)nc(OCC(F)(F)F)n2)cc1)C(=O)O` [Compound 1016, (S)-5-(2-amino-2-oxoacetamido)-2-(4-(4-(1-(4-chlorophenyl)cyclopropylamino)-6-(2,2,2-trifluoroethoxy)-1,3,5-triazin-2-ylamino)benzamido)pentanoic acid]: the EC50 was 0.01 to 10 nM.

For `COC(=O)C(NC(=O)c1ccc(Nc2nc(NC3(c4ccc(Cl)cc4)CC3)nc(OCC(F)(F)F)n2)cc1)C1CCCN(C(=O)C(N)=O)C1` (centres unmarked) [Compound 1017, methyl 2-(1-(2-amino-2-oxoacetyl)piperidin-3-yl)-2-(4-(4-(1-(4-chlorophenyl)cyclopropylamino)-6-(2,2,2-trifluoroethoxy)-1,3,5-triazin-2-ylamino)benzamido)acetate], the EC50 was 0.01 to 10 nM.

In the case of `NC(=O)C(=O)N1CCCC(C(NC(=O)c2ccc(Nc3nc(NC4(c5ccc(Cl)cc5)CC4)nc(OCC(F)(F)F)n3)cc2)C(=O)O)C1` (centres unmarked) [Compound 1018, 2-(1-(2-amino-2-oxoacetyl)piperidin-3-yl)-2-(4-(4-(1-(4-chlorophenyl)cyclopropylamino)-6-(2,2,2-trifluoroethoxy)-1,3,5-triazin-2-ylamino)benzamido)acetic acid], the EC50 was in the range of 0.01 to 10 nM.

`CCCNC(=O)C(NC(=O)c1ccc(Nc2nc(NC3(c4ccc(Cl)cc4)CC3)nc(OCC(F)(F)F)n2)cc1)C1CCCN(C(=O)C(N)=O)C1` (centres unmarked) [Compound 1019, N-(1-(1-(2-amino-2-oxoacetyl)piperidin-3-yl)-2-oxo-2-(propylamino)ethyl)-4-(4-(1-(4-chlorophenyl)cyclopropylamino)-6-(2,2,2-trifluoroethoxy)-1,3,5-triazin-2-ylamino)benzamide]: the EC50 lay in the range of 0.01 to 10 nM.

As to `CCOC(=O)[C@H](CNC(=O)C(=O)N(C)C)NC(=O)c1ccc(Nc2nc(NC3(c4ccc(Cl)cc4)CC3)nc(OCC(F)(F)F)n2)cc1` [Compound 1020, (S)-ethyl 2-(4-(4-(1-(4-chlorophenyl)cyclopropylamino)-6-(2,2,2-trifluoroethoxy)-1,3,5-triazin-2-ylamino)benzamido)-3-(2-(dimethylamino)-2-oxoacetamido)propanoate], the EC50 was in the range of 0.01 to 10 nM.

Regarding `CC(C)OC(=O)[C@H](CNC(=O)C(=O)N(C)C)NC(=O)c1ccc(Nc2nc(NC3(c4ccc(Cl)cc4)CC3)nc(OCC(F)(F)F)n2)cc1` [Compound 1021, (S)-isopropyl 2-(4-(4-(1-(4-chlorophenyl)cyclopropylamino)-6-(2,2,2-trifluoroethoxy)-1,3,5-triazin-2-ylamino)benzamido)-3-(2-(dimethylamino)-2-oxoacetamido)propanoate], the EC50 was 0.01 to 10 nM.

Turning to `CN(C)C(=O)C(=O)NC[C@H](NC(=O)c1ccc(Nc2nc(NC3(c4ccc(Cl)cc4)CC3)nc(OCC(F)(F)F)n2)cc1)C(=O)OCCN1CCOCC1` [Compound 1022, (S)-2-morpholinoethyl 2-(4-(4-(1-(4-chlorophenyl)cyclopropylamino)-6-(2,2,2-trifluoroethoxy)-1,3,5-triazin-2-ylamino)benzamido)-3-(2-(dimethylamino)-2-oxoacetamido)propanoate], the EC50 was in the range of 0.01 to 10 nM.
